# Test results published in patent publication US20240238242A1, “EGCG buccal tablet and use thereof” (priority 2023, published 2024).
# “And” between values parts separate entries of the source, which are not always exact repeats. Equal values may be shown once. Read-outs that look alike come from different tables or passages of the source.
# Test system: Influenza A H1N1 virus (H1N1-PR8)
# Assay type: cell-based
# Details: for average inactivation efficiency against virus: three experiments; for inactivation efficiency against the virus: single experiment
# [1] = 0.2 mM EGCG, PR8 virus, 5 minutes
# [2] = 1 mM EGCG, PR8 virus, 5 minutes
# [3] = 5 mM EGCG, PR8 virus, 5 minutes
smiles,measurement,setting,value
"O=C(O[C@@H]1Cc2c(O)cc(O)cc2O[C@@H]1c1cc(O)c(O)c(O)c1)c1cc(O)c(O)c(O)c1 [EGCG, Epigallocatechin gallate]","CPE test, virus replication in cell wells (wells 1-10)","0.2 mM EGCG + PR8 virus, 5 minutes, third experiment, dilution factor 10^1",+
same,"CPE test, virus replication in cell wells (wells 1-10)","0.2 mM EGCG + PR8 virus, 5 minutes, third experiment, dilution factor 10^2",+
same,"CPE test, virus replication in cell wells (wells 1-10)","0.2 mM EGCG + PR8 virus, 5 minutes, third experiment, dilution factor 10^3",+
same,"CPE test, virus replication in cell wells (wells 1-10)","0.2 mM EGCG + PR8 virus, 5 minutes, third experiment, dilution factor 10^4",+
same,"CPE test, virus replication in cell wells (wells 1-10)","0.2 mM EGCG + PR8 virus, 5 minutes, third experiment, dilution factor 10^5",+
same,"CPE test, virus replication in cell wells (wells 1-10)","0.2 mM EGCG + PR8 virus, 5 minutes, third experiment, dilution factor 10^6",− and +
same,"CPE test, virus replication in cell wells (wells 1-10)","0.2 mM EGCG + PR8 virus, 5 minutes, third experiment, dilution factor 10^7",−
same,"CPE test, virus replication in cell wells (wells 1-10)","0.2 mM EGCG + PR8 virus, 5 minutes, third experiment, dilution factor 10^8",−
same,CPE test (virus replication in the cell wells),"0.2 mM EGCG + PR8 virus, co-incubated 1 minute, third experiment, dilution factor 10^1, wells 1-10",+
same,CPE test (virus replication in the cell wells),"0.2 mM EGCG + PR8 virus, co-incubated 1 minute, third experiment, dilution factor 10^2, wells 1-10",+
same,CPE test (virus replication in the cell wells),"0.2 mM EGCG + PR8 virus, co-incubated 1 minute, third experiment, dilution factor 10^3, wells 1-10",+
same,CPE test (virus replication in the cell wells),"0.2 mM EGCG + PR8 virus, co-incubated 1 minute, third experiment, dilution factor 10^4, wells 1-10",+
same,CPE test (virus replication in the cell wells),"0.2 mM EGCG + PR8 virus, co-incubated 1 minute, third experiment, dilution factor 10^5, wells 1-10",+
same,CPE test (virus replication in the cell wells),"0.2 mM EGCG + PR8 virus, co-incubated 1 minute, third experiment, dilution factor 10^6, wells 1-10",+ and −
same,CPE test (virus replication in the cell wells),"0.2 mM EGCG + PR8 virus, co-incubated 1 minute, third experiment, dilution factor 10^7, wells 1-10",− and +
same,CPE test (virus replication in the cell wells),"0.2 mM EGCG + PR8 virus, co-incubated 1 minute, third experiment, dilution factor 10^8, wells 1-10",−
same,CPE test (virus replication in the cell wells),"0.2 mM EGCG + virus, PR8, 1 minute, first experiment, dilution factor 10^1, wells 1-10",+
same,CPE test (virus replication in the cell wells),"0.2 mM EGCG + virus, PR8, 1 minute, first experiment, dilution factor 10^2, wells 1-10",+
same,CPE test (virus replication in the cell wells),"0.2 mM EGCG + virus, PR8, 1 minute, first experiment, dilution factor 10^3, wells 1-10",+
same,CPE test (virus replication in the cell wells),"0.2 mM EGCG + virus, PR8, 1 minute, first experiment, dilution factor 10^4, wells 1-10",+
same,CPE test (virus replication in the cell wells),"0.2 mM EGCG + virus, PR8, 1 minute, first experiment, dilution factor 10^5, wells 1-10",+
same,CPE test (virus replication in the cell wells),"0.2 mM EGCG + virus, PR8, 1 minute, first experiment, dilution factor 10^6, wells 1-10",− and +
same,CPE test (virus replication in the cell wells),"0.2 mM EGCG + virus, PR8, 1 minute, first experiment, dilution factor 10^7, wells 1-10",− and +
same,CPE test (virus replication in the cell wells),"0.2 mM EGCG + virus, PR8, 1 minute, first experiment, dilution factor 10^8, wells 1-10",−
same,CPE test (virus replication in the cell wells),"0.2 mM EGCG + virus, PR8, 1 minute, second experiment, dilution factor 10^1, wells 1-10",+
same,CPE test (virus replication in the cell wells),"0.2 mM EGCG + virus, PR8, 1 minute, second experiment, dilution factor 10^2, wells 1-10",+
same,CPE test (virus replication in the cell wells),"0.2 mM EGCG + virus, PR8, 1 minute, second experiment, dilution factor 10^3, wells 1-10",+
same,CPE test (virus replication in the cell wells),"0.2 mM EGCG + virus, PR8, 1 minute, second experiment, dilution factor 10^4, wells 1-10",+
same,CPE test (virus replication in the cell wells),"0.2 mM EGCG + virus, PR8, 1 minute, second experiment, dilution factor 10^5, wells 1-10",+
same,CPE test (virus replication in the cell wells),"0.2 mM EGCG + virus, PR8, 1 minute, second experiment, dilution factor 10^6, wells 1-10",+ and −
same,CPE test (virus replication in the cell wells),"0.2 mM EGCG + virus, PR8, 1 minute, second experiment, dilution factor 10^7, wells 1-10",−
same,CPE test (virus replication in the cell wells),"0.2 mM EGCG + virus, PR8, 1 minute, second experiment, dilution factor 10^8, wells 1-10",−
same,average inactivation efficiency against virus,"0.2 mM EGCG, PR8 virus, 1 minute",49.88%
same,inactivation efficiency against the virus,[1],84.15%
same,average inactivation efficiency against virus,[1],70.91%
same,"CPE test, virus replication in cell wells (wells 1-10)","1 mM EGCG + PR8 virus, 5 minutes, third experiment, dilution factor 10^3",+
same,"CPE test, virus replication in cell wells (wells 1-10)","1 mM EGCG + PR8 virus, 5 minutes, third experiment, dilution factor 10^4",+
same,"CPE test, virus replication in cell wells (wells 1-10)","1 mM EGCG + PR8 virus, 5 minutes, third experiment, dilution factor 10^5",+
same,"CPE test, virus replication in cell wells (wells 1-10)","1 mM EGCG + PR8 virus, 5 minutes, third experiment, dilution factor 10^6",− and +
same,"CPE test, virus replication in cell wells (wells 1-10)","1 mM EGCG + PR8 virus, 5 minutes, third experiment, dilution factor 10^7",−
same,"CPE test, virus replication in cell wells (wells 1-10)","1 mM EGCG + PR8 virus, 5 minutes, third experiment, dilution factor 10^8",−
same,CPE test (virus replication in the cell wells),"1 mM EGCG + PR8 virus, co-incubated 1 minute, third experiment, dilution factor 10^3, wells 1-10",+
same,CPE test (virus replication in the cell wells),"1 mM EGCG + PR8 virus, co-incubated 1 minute, third experiment, dilution factor 10^4, wells 1-10",+
same,CPE test (virus replication in the cell wells),"1 mM EGCG + PR8 virus, co-incubated 1 minute, third experiment, dilution factor 10^5, wells 1-10",+ and −
same,CPE test (virus replication in the cell wells),"1 mM EGCG + PR8 virus, co-incubated 1 minute, third experiment, dilution factor 10^6, wells 1-10",− and +
same,CPE test (virus replication in the cell wells),"1 mM EGCG + PR8 virus, co-incubated 1 minute, third experiment, dilution factor 10^7, wells 1-10",−
same,CPE test (virus replication in the cell wells),"1 mM EGCG + PR8 virus, co-incubated 1 minute, third experiment, dilution factor 10^8, wells 1-10",−
same,CPE test (virus replication in the cell wells),"1 mM EGCG + PR8 virus, co-incubated 5 minutes, first experiment, dilution factor 10^3, wells 1-10",+
same,CPE test (virus replication in the cell wells),"1 mM EGCG + PR8 virus, co-incubated 5 minutes, first experiment, dilution factor 10^4, wells 1-10",+
same,CPE test (virus replication in the cell wells),"1 mM EGCG + PR8 virus, co-incubated 5 minutes, first experiment, dilution factor 10^5, wells 1-10",+
same,CPE test (virus replication in the cell wells),"1 mM EGCG + virus, PR8, 1 minute, first experiment, dilution factor 10^3, wells 1-10",+
same,CPE test (virus replication in the cell wells),"1 mM EGCG + virus, PR8, 1 minute, first experiment, dilution factor 10^4, wells 1-10",+
same,CPE test (virus replication in the cell wells),"1 mM EGCG + virus, PR8, 1 minute, first experiment, dilution factor 10^5, wells 1-10",+
same,CPE test (virus replication in the cell wells),"1 mM EGCG + virus, PR8, 1 minute, first experiment, dilution factor 10^6, wells 1-10",+ and −
same,CPE test (virus replication in the cell wells),"1 mM EGCG + virus, PR8, 1 minute, first experiment, dilution factor 10^7, wells 1-10",−
same,CPE test (virus replication in the cell wells),"1 mM EGCG + virus, PR8, 1 minute, first experiment, dilution factor 10^8, wells 1-10",−
same,CPE test (virus replication in the cell wells),"1 mM EGCG + virus, PR8, 1 minute, second experiment, dilution factor 10^1, wells 1-10",+
same,CPE test (virus replication in the cell wells),"1 mM EGCG + virus, PR8, 1 minute, second experiment, dilution factor 10^2, wells 1-10",+
same,CPE test (virus replication in the cell wells),"1 mM EGCG + virus, PR8, 1 minute, second experiment, dilution factor 10^3, wells 1-10",+
same,CPE test (virus replication in the cell wells),"1 mM EGCG + virus, PR8, 1 minute, second experiment, dilution factor 10^4, wells 1-10",+
same,CPE test (virus replication in the cell wells),"1 mM EGCG + virus, PR8, 1 minute, second experiment, dilution factor 10^5, wells 1-10",+
same,CPE test (virus replication in the cell wells),"1 mM EGCG + virus, PR8, 1 minute, second experiment, dilution factor 10^6, wells 1-10",− and +
same,CPE test (virus replication in the cell wells),"1 mM EGCG + virus, PR8, 1 minute, second experiment, dilution factor 10^7, wells 1-10",−
same,CPE test (virus replication in the cell wells),"1 mM EGCG + virus, PR8, 1 minute, second experiment, dilution factor 10^8, wells 1-10",−
same,inactivation efficiency against the virus,"1 mM EGCG, PR8 virus, 1 minute",87.41% and 80.05%
same,average inactivation efficiency against virus,"1 mM EGCG, PR8 virus, 1 minute",82.50%
same,inactivation efficiency against the virus,[2],87.41% and 84.15% and 90.00%
same,average inactivation efficiency against virus,[2],87.19%
same,"CPE test, virus replication in cell wells (wells 1-10)","5 mM EGCG + PR8 virus, 5 minutes, third experiment, dilution factor 10^4",+ and −
same,"CPE test, virus replication in cell wells (wells 1-10)","5 mM EGCG + PR8 virus, 5 minutes, third experiment, dilution factor 10^5",− and +
same,"CPE test, virus replication in cell wells (wells 1-10)","5 mM EGCG + PR8 virus, 5 minutes, third experiment, dilution factor 10^6",−
same,"CPE test, virus replication in cell wells (wells 1-10)","5 mM EGCG + PR8 virus, 5 minutes, third experiment, dilution factor 10^7",−
same,"CPE test, virus replication in cell wells (wells 1-10)","5 mM EGCG + PR8 virus, 5 minutes, third experiment, dilution factor 10^8",−
same,CPE test (virus replication in the cell wells),"5 mM EGCG + PR8 virus, co-incubated 1 minute, third experiment, dilution factor 10^4, wells 1-10",+
same,CPE test (virus replication in the cell wells),"5 mM EGCG + PR8 virus, co-incubated 1 minute, third experiment, dilution factor 10^5, wells 1-10",+ and −
same,CPE test (virus replication in the cell wells),"5 mM EGCG + PR8 virus, co-incubated 1 minute, third experiment, dilution factor 10^6, wells 1-10",− and +
same,CPE test (virus replication in the cell wells),"5 mM EGCG + PR8 virus, co-incubated 1 minute, third experiment, dilution factor 10^7, wells 1-10",−
same,CPE test (virus replication in the cell wells),"5 mM EGCG + PR8 virus, co-incubated 1 minute, third experiment, dilution factor 10^8, wells 1-10",−
same,CPE test (virus replication in the cell wells),"5 mM EGCG + PR8 virus, co-incubated 5 minutes, first experiment, dilution factor 10^4, wells 1-10",−
same,CPE test (virus replication in the cell wells),"5 mM EGCG + PR8 virus, co-incubated 5 minutes, first experiment, dilution factor 10^5, wells 1-10",−
same,CPE test (virus replication in the cell wells),"5 mM EGCG + PR8 virus, co-incubated 5 minutes, first experiment, dilution factor 10^6, wells 1-10",−
same,CPE test (virus replication in the cell wells),"5 mM EGCG + PR8 virus, co-incubated 5 minutes, first experiment, dilution factor 10^7, wells 1-10",−
same,CPE test (virus replication in the cell wells),"5 mM EGCG + PR8 virus, co-incubated 5 minutes, first experiment, dilution factor 10^8, wells 1-10",−
same,CPE test (virus replication in the cell wells),"5 mM EGCG + virus, PR8, 1 minute, first experiment, dilution factor 10^4, wells 1-10",+ and −
same,CPE test (virus replication in the cell wells),"5 mM EGCG + virus, PR8, 1 minute, first experiment, dilution factor 10^5, wells 1-10",− and +
same,CPE test (virus replication in the cell wells),"5 mM EGCG + virus, PR8, 1 minute, first experiment, dilution factor 10^6, wells 1-10",−
same,CPE test (virus replication in the cell wells),"5 mM EGCG + virus, PR8, 1 minute, first experiment, dilution factor 10^7, wells 1-10",−
same,CPE test (virus replication in the cell wells),"5 mM EGCG + virus, PR8, 1 minute, first experiment, dilution factor 10^8, wells 1-10",−
same,CPE test (virus replication in the cell wells),"5 mM EGCG + virus, PR8, 1 minute, second experiment, dilution factor 10^4, wells 1-10",− and +
same,CPE test (virus replication in the cell wells),"5 mM EGCG + virus, PR8, 1 minute, second experiment, dilution factor 10^5, wells 1-10",− and +
same,CPE test (virus replication in the cell wells),"5 mM EGCG + virus, PR8, 1 minute, second experiment, dilution factor 10^6, wells 1-10",−
same,CPE test (virus replication in the cell wells),"5 mM EGCG + virus, PR8, 1 minute, second experiment, dilution factor 10^7, wells 1-10",−
same,CPE test (virus replication in the cell wells),"5 mM EGCG + virus, PR8, 1 minute, second experiment, dilution factor 10^8, wells 1-10",−
same,inactivation efficiency against the virus,"5 mM EGCG, PR8 virus, 1 minute",99.50% and 99.60% and 93.69%
same,average inactivation efficiency against virus,"5 mM EGCG, PR8 virus, 1 minute",97.60%
same,residual virus titer of EGCG+virus group (Karber method),[3],10^4 TCID50/50 μL
same,inactivation efficiency against the virus,[3],99.92% and 99.75% and 99.60%
same,average inactivation efficiency against virus,[3],99.76%
